Test results as given in patent US12077503B2, “Substituted cyclic amides and their use as herbicides” (FMC CORPORATION, priority 2015, dated 2024).

Legend:
Assay type in all cases: in vivo
Kochia (Kochia scoparia) [1] = assay: Test A preemergence; details: Bassia scoparia, pre-emergence, 240 h, Preemergence
Method in brief: (§1)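 Seeds sprayed preemergence with a directed soil spray, or plants at 2 to 10 cm height and one- to two-leaf stage sprayed postemergence, with test chemicals in a non-phytotoxic solvent mixture containing surfactant, in loam soil–sand blend. Injury rated visually against untreated controls after about 10 d in greenhouse, 0 (no effect) to 100 (complete control).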

[2] = test system: barnyardgrass (Echinochloa crus-galli); assay: Test A preemergence; details: Echinochloa crus-galli, pre-emergence, 240 h, Preemergence
Method in brief: as §1

[3] = test system: giant foxtail (Setaria faberii); assay: Test A preemergence; details: Setaria faberi, pre-emergence, 240 h, Preemergence
Method in brief: as §1

[4] = test system: pigweed (Amaranthus retroflexus); assay: Test A preemergence; details: Amaranthus retroflexus, pre-emergence, 240 h, Preemergence
[5] = test system: ragweed (common ragweed, Ambrosia elatior); assay: Test A preemergence; details: Ambrosia artemisiifolia, pre-emergence, 240 h, Preemergence
Method in brief: as §1

[6] = test system: ryegrass, Italian (Italian ryegrass, Lolium multiflorum); assay: Test A preemergence; details: Lolium multiflorum, pre-emergence, 240 h, Preemergence
Method in brief: as §1

[7] = test system: Galium (catchweed bedstraw, Galium aparine); assay: Test A postemergence; details: Galium, post-emergence, 240 h
Method in brief: as §1

Kochia (Kochia scoparia) [8] = assay: Test A postemergence; details: Bassia scoparia, post-emergence, 240 h
Method in brief: as §1

[9] = test system: barnyardgrass (Echinochloa crus-galli); assay: Test A postemergence; details: Echinochloa crus-galli, post-emergence, 240 h
Method in brief: as §1

[10] = test system: blackgrass (Alopecurus myosuroides); assay: Test A postemergence; details: Alopecurus myosuroides, post-emergence, 240 h
Method in brief: as §1

corn (Zea mays) = assay: Test A postemergence; details: Zea mays, post-emergence, 240 h
Method in brief: as §1

[11] = test system: giant foxtail (Setaria faberii); assay: Test A postemergence; details: Setaria faberi, post-emergence, 240 h
Method in brief: as §1

[12] = test system: pigweed (Amaranthus retroflexus); assay: Test A postemergence; details: Amaranthus retroflexus, post-emergence, 240 h
Method in brief: as §1

[13] = test system: ragweed (common ragweed, Ambrosia elatior); assay: Test A postemergence; details: Ambrosia artemisiifolia, post-emergence, 240 h
Method in brief: as §1

[14] = test system: ryegrass, Italian (Italian ryegrass, Lolium multiflorum); assay: Test A postemergence; details: Lolium multiflorum, post-emergence, 240 h
Method in brief: as §1

[15] = test system: wheat (Triticum aestivum); assay: Test A postemergence; details: Triticum aestivum, post-emergence, 240 h
Method in brief: as §1

[16] = test system: barnyardgrass (Echinochloa crus-galli); assay: Test B flooded paddy test; details: Echinochloa crus-galli, 250 g ai/ha, Flood; 0 to 100 scale where 0 is no effect and 100 is complete control; read-out: Barnyardgrass plant response rating
Method in brief: (§2)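 Evaluation by eye, against controls, occurred 13–15 d post-treatment in a greenhouse, using a 0 (no effect) to 100 (complete control) scale. Application was into the paddy water, 3 cm deep over the soil, on 2-leaf plants.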

[17] = test system: ducksalad (Heteranthera limosa); assay: Test B flooded paddy test; details: Heteranthera limosa, 250 g ai/ha, Flood; 0 to 100 scale where 0 is no effect and 100 is complete control; read-out: Ducksalad plant response rating
Method in brief: as §2

rice (Oryra sativa) = assay: Test B flooded paddy test; details: Oryza sativa, 250 g ai/ha, Flood; 0 to 100 scale where 0 is no effect and 100 is complete control; read-out: Rice plant response rating
Method in brief: as §2

[18] = test system: sedge, umbrella (small-flower umbrella sedge, Cyperus difformis); assay: Test B flooded paddy test; details: Cyperus difformis, 250 g ai/ha, Flood; 0 to 100 scale where 0 is no effect and 100 is complete control; read-out: Sedge, Umbrella plant response rating
Method in brief: as §2

CSc1ccccc1NC(=O)[C@H]1C(=O)N(C)C[C@@H]1c1ccc(C(F)(F)F)cn1 [Compound 1051]
pest or weed control at 31 g/ha (Kochia (Kochia scoparia) [1]; 31 g ai/ha, 0 to 100 scale where 0 is no effect and 100 is complete control, read-out: Kochia plant response rating): 0% | pest or weed control at 125 g/ha (Kochia (Kochia scoparia) [1]; 125 g ai/ha, visual injury rating after approximately 10 d, read-out: Kochia plant response rating (0 to 100 scale, 0 is no effect, 100 is complete control)): 0% | pest or weed control at 125 g/ha ([2]; 125 g ai/ha, visual injury rating after approximately 10 d, read-out: Barnyardgrass plant response rating (0 to 100 scale, 0 is no effect, 100 is complete control)): 20% | pest or weed control at 31 g/ha ([2]; 31 g ai/ha, 0 to 100 scale (0 no effect, 100 complete control), read-out: Plant response rating, Barnyardgrass): 0% | pest or weed control at 125 g/ha ([3]; 125 g ai/ha, visual injury rating after approximately 10 d, read-out: Foxtail, Giant plant response rating (0 to 100 scale, 0 is no effect, 100 is complete control)): 90% | pest or weed control at 31 g/ha ([3]; 31 g ai/ha, 0 to 100 scale (0 no effect, 100 complete control), read-out: Plant response rating, Foxtail, Giant): 30% | pest or weed control at 31 g/ha ([4]; 31 g ai/ha, 0 to 100 scale where 0 is no effect and 100 is complete control, read-out: Pigweed plant response rating): 0% | pest or weed control at 125 g/ha ([4]; 125 g ai/ha, visual injury rating after approximately 10 d, read-out: Pigweed plant response rating (0 to 100 scale, 0 is no effect, 100 is complete control)): 40% | pest or weed control at 31 g/ha ([5]; 31 g ai/ha, 0 to 100 scale where 0 is no effect and 100 is complete control, read-out: Ragweed plant response rating): 0% | pest or weed control at 125 g/ha ([5]; 125 g ai/ha, visual injury rating after approximately 10 d, read-out: Ragweed plant response rating (0 to 100 scale, 0 is no effect, 100 is complete control)): 0% | pest or weed control at 31 g/ha ([6]; 31 g ai/ha, 0 to 100 scale where 0 is no effect and 100 is complete control, read-out: Ryegrass, Italian plant response rating): 0% | pest or weed control at 125 g/ha ([6]; 125 g ai/ha, visual injury rating after approximately 10 d, read-out: Ryegrass, Italian plant response rating (0 to 100 scale, 0 is no effect, 100 is complete control)): 0% | pest or weed control at 125 g/ha ([7]; 125 g ai/ha, postemergence, visual injury on 0 to 100 scale (0 no effect, 100 complete control), approx. 10 d, read-out: Galium plant response rating): 50% | pest or weed control at 31 g/ha ([7]; Postemergence, 31 g ai/ha, visual injury after approx. 10 d, 0 to 100 scale, 0 no effect, 100 complete control, read-out: Plant response rating, Galium): 30% | pest or weed control at 125 g/ha (Kochia (Kochia scoparia) [8]; 125 g ai/ha, postemergence, visual injury on 0 to 100 scale (0 no effect, 100 complete control), approx. 10 d, read-out: Kochia plant response rating): 0% | pest or weed control at 31 g/ha (Kochia (Kochia scoparia) [8]; Postemergence, 31 g ai/ha, visual injury after approx. 10 d, 0 to 100 scale, 0 no effect, 100 complete control, read-out: Plant response rating, Kochia): 0% | pest or weed control at 125 g/ha ([9]; 125 g ai/ha, postemergence, visual injury on 0 to 100 scale (0 no effect, 100 complete control), approx. 10 d, read-out: Barnyardgrass plant response rating): 0% | pest or weed control at 31 g/ha ([9]; Postemergence, 31 g ai/ha, visual injury after approx. 10 d, 0 to 100 scale, 0 no effect, 100 complete control, read-out: Plant response rating, Barnyardgrass): 0% | pest or weed control at 125 g/ha ([10]; 125 g ai/ha, postemergence, visual injury on 0 to 100 scale (0 no effect, 100 complete control), approx. 10 d, read-out: Blackgrass plant response rating): 0% | pest or weed control at 31 g/ha ([10]; Postemergence, 31 g ai/ha, visual injury after approx. 10 d, 0 to 100 scale, 0 no effect, 100 complete control, read-out: Plant response rating, Blackgrass): 0% | plant injury at 125 g/ha (corn (Zea mays); 125 g ai/ha, postemergence, visual injury on 0 to 100 scale (0 no effect, 100 complete control), approx. 10 d, read-out: Corn plant response rating): 0% | Corn plant response rating (crop injury, 0 = no effect, 100 = complete kill) at 31 g/ha (corn (Zea mays); Postemergence, 31 g ai/ha, visual injury after approx. 10 d, 0 to 100 scale, 0 no effect, 100 complete control): 0% | pest or weed control at 125 g/ha ([11]; 125 g ai/ha, postemergence, visual injury on 0 to 100 scale (0 no effect, 100 complete control), approx. 10 d, read-out: Foxtail, Giant plant response rating): 0% | pest or weed control at 31 g/ha ([11]; Postemergence, 31 g ai/ha, visual injury after approx. 10 d, 0 to 100 scale, 0 no effect, 100 complete control, read-out: Plant response rating, Foxtail, Giant): 0% | pest or weed control at 125 g/ha ([12]; 125 g ai/ha, postemergence, visual injury on 0 to 100 scale (0 no effect, 100 complete control), approx. 10 d, read-out: Pigweed plant response rating): 0% | pest or weed control at 31 g/ha ([12]; Postemergence, 31 g ai/ha, visual injury after approx. 10 d, 0 to 100 scale, 0 no effect, 100 complete control, read-out: Plant response rating, Pigweed): 0% | pest or weed control at 125 g/ha ([13]; 125 g ai/ha, postemergence, visual injury on 0 to 100 scale (0 no effect, 100 complete control), approx. 10 d, read-out: Ragweed plant response rating): 0% | pest or weed control at 31 g/ha ([13]; Postemergence, 31 g ai/ha, visual injury after approx. 10 d, 0 to 100 scale, 0 no effect, 100 complete control, read-out: Plant response rating, Ragweed): 0% | pest or weed control at 125 g/ha ([14]; 125 g ai/ha, postemergence, visual injury on 0 to 100 scale (0 no effect, 100 complete control), approx. 10 d, read-out: Ryegrass, Italian plant response rating): 0% | pest or weed control at 31 g/ha ([14]; Postemergence, 31 g ai/ha, visual injury after approx. 10 d, 0 to 100 scale, 0 no effect, 100 complete control, read-out: Plant response rating, Ryegrass, Italian): 0% | plant injury at 125 g/ha ([15]; 125 g ai/ha, postemergence, visual injury on 0 to 100 scale (0 no effect, 100 complete control), approx. 10 d, read-out: Wheat plant response rating): 0% | plant injury at 31 g/ha ([15]; Postemergence, 31 g ai/ha, visual injury after approx. 10 d, 0 to 100 scale, 0 no effect, 100 complete control, read-out: Plant response rating, Wheat): 0% | pest or weed control at 250 g/ha [16]: 0% | pest or weed control at 250 g/ha [17]: 75% | pest or weed control at 250 g/ha (rice (Oryra sativa)): 0% | pest or weed control at 250 g/ha [18]: 0%
